Assay results as given in PMC10141580, “Cyclic Dichalcogenides Extend the Reach of Bioreductive Prodrugs to Harness Thiol/Disulfide Oxidoreductases: Applications to seco-Duocarmycins Targeting the Thioredoxin System” (ACS Central Science, 2023).
Where two headings read alike, the source gives them in different places.

Test system: NCI-60 standardized human tumor cell line panel
Experiment: cells
Format: cell-based
[1] = cell line A549/ATCC (LC:A549/ATCC), TMI sheet
[2] = cell line BT-549 (BR:BT-549), TMI sheet
[3] = cell line CCRF-CEM (LE:CCRF-CEM), TMI sheet
[4] = cell line COLO 205 (CO:COLO 205), TMI sheet
[5] = cell line EKVX (LC:EKVX), TMI sheet
[6] = cell line HCC-2998 (CO:HCC-2998), TMI sheet
[7] = cell line HCT-15 (CO:HCT-15), TMI sheet
[8] = cell line HCT-116 (CO:HCT-116), TMI sheet
[9] = cell line HL-60(TB) (LE:HL-60(TB)), TMI sheet
[10] = cell line HOP-62 (LC:HOP-62), TMI sheet
[11] = cell line HOP-92 (LC:HOP-92), TMI sheet
[12] = cell line HT29 (CO:HT29), TMI sheet
[13] = cell line K-562 (LE:K-562), TMI sheet
[14] = cell line KM12 (CO:KM12), TMI sheet
[15] = cell line LOX IMVI (ME:LOX IMVI), TMI sheet
[16] = cell line M14 (ME:M14), TMI sheet
[17] = cell line MALME-3M (ME:MALME-3M), TMI sheet
[18] = cell line MCF7 (BR:MCF7), TMI sheet
[19] = cell line MDA-MB-435 (ME:MDA-MB-435), TMI sheet
[20] = cell line MOLT-4 (LE:MOLT-4), TMI sheet
[21] = cell line NCI-H23 (LC:NCI-H23), TMI sheet
[22] = cell line NCI-H226 (LC:NCI-H226), TMI sheet
[23] = cell line RPMI-8226 (LE:RPMI-8226), TMI sheet
[24] = cell line SF-268 (CNS:SF-268), TMI sheet
[25] = cell line SF-295 (CNS:SF-295), TMI sheet
[26] = cell line SF-539 (CNS:SF-539), TMI sheet
[27] = cell line SK-MEL-5 (ME:SK-MEL-5), TMI sheet
[28] = cell line SK-MEL-28 (ME:SK-MEL-28), TMI sheet
[29] = cell line SNB-19 (CNS:SNB-19), TMI sheet
[30] = cell line SR (LE:SR), TMI sheet
[31] = cell line SW-620 (CO:SW-620), TMI sheet
[32] = cell line T-47D (BR:T-47D), TMI sheet
[33] = cell line U251 (CNS:U251), TMI sheet
[34] = cell line UACC-62 (ME:UACC-62), TMI sheet
[35] = cell line UACC-257 (ME:UACC-257), TMI sheet

For COc1cc2cc(C(=O)N3C[C@@H](CCl)c4c3cc(OC(=O)N(CCC(=O)N3CCN(C)CC3)[C@H]3CCSSC3)c3ccccc43)[nH]c2c(OC)c1OC [P-SS60-CBI-TMI], which GI50 (U251, read-out: GI50) is on record?
The GI50 was 160 nM.

And the GI50 (UACC-62, read-out: GI50)?
The GI50 was 270 nM.

And the GI50 (UACC-257, read-out: GI50)?
The GI50 was 630 nM.

What about the “NCI-60 screening: Log(GI50)” value [1] of the same molecule?
The value was -6.82.

And the “NCI-60 screening: Log(RedIndex)” value [1]?
The value was 1.12.

What about the GI50 (cell line A549/ATCC (LC:A549/ATCC), TMI sheet, read-out: NCI-60 screening: Raw GI50) of the same molecule?
The GI50 was 150 nM.

What about the “NCI-60 screening: Log(GI50)” value [2] of the same molecule?
The value was -6.64.

What about the “NCI-60 screening: Log(RedIndex)” value [2] of the same molecule?
The value was 0.84.

What about the GI50 (cell line BT-549 (BR:BT-549), TMI sheet, read-out: NCI-60 screening: Raw GI50) of the same molecule?
Its GI50 is 230 nM.

What about the “NCI-60 screening: Log(GI50)” value [3] of the same molecule?
The value was -6.66.

What about the “NCI-60 screening: Log(RedIndex)” value [3] of the same molecule?
The value was 0.66.

And the GI50 (cell line CCRF-CEM (LE:CCRF-CEM), TMI sheet, read-out: NCI-60 screening: Raw GI50)?
Its GI50 is 220 nM.

And the “NCI-60 screening: Log(GI50)” value [4]?
Its value is -6.47.

And the “NCI-60 screening: Log(RedIndex)” value [4]?
Its value is 0.6.

And the “NCI-60 screening: Log(GI50)” value [5]?
The value was -6.5.

What about the “NCI-60 screening: Log(RedIndex)” value [5] of the same molecule?
The value was 0.79.

What about the “NCI-60 screening: Log(GI50)” value [6] of the same molecule?
Its value is -6.8.

What about the “NCI-60 screening: Log(RedIndex)” value [6] of the same molecule?
The value was 0.98.

And the GI50 (cell line HCC-2998 (CO:HCC-2998), TMI sheet, read-out: NCI-60 screening: Raw GI50)?
The GI50 was 160 nM.

What about the “NCI-60 screening: Log(GI50)” value [7] of the same molecule?
Its value is -6.59.

And the “NCI-60 screening: Log(RedIndex)” value [7]?
The value was 0.82.

And the GI50 (cell line HCT-15 (CO:HCT-15), TMI sheet, read-out: NCI-60 screening: Raw GI50)?
Its GI50 is 260 nM.

And the “NCI-60 screening: Log(GI50)” value [8]?
The value was -6.8.

What about the “NCI-60 screening: Log(RedIndex)” value [8] of the same molecule?
Its value is 0.98.

What about the GI50 (cell line HCT-116 (CO:HCT-116), TMI sheet, read-out: NCI-60 screening: Raw GI50) of the same molecule?
Its GI50 is 160 nM.

And the “NCI-60 screening: Log(GI50)” value [9]?
Its value is -6.92.

And the “NCI-60 screening: Log(RedIndex)” value [9]?
The value was 0.8.

What about the “NCI-60 screening: Log(GI50)” value [10] of the same molecule?
Its value is -6.96.

And the “NCI-60 screening: Log(RedIndex)” value [10]?
Its value is 0.73.

What about the “NCI-60 screening: Log(GI50)” value [11] of the same molecule?
The value was -6.46.

And the “NCI-60 screening: Log(RedIndex)” value [11]?
The value was 0.86.

What about the “NCI-60 screening: Log(GI50)” value [12] of the same molecule?
Its value is -6.57.

And the “NCI-60 screening: Log(RedIndex)” value [12]?
The value was 0.75.

And the GI50 (cell line HT29 (CO:HT29), TMI sheet, read-out: NCI-60 screening: Raw GI50)?
Its GI50 is 270 nM.

And the “NCI-60 screening: Log(GI50)” value [13]?
Its value is -6.79.

And the “NCI-60 screening: Log(RedIndex)” value [13]?
Its value is 0.62.

What about the GI50 (cell line K-562 (LE:K-562), TMI sheet, read-out: NCI-60 screening: Raw GI50) of the same molecule?
Its GI50 is 160 nM.

And the “NCI-60 screening: Log(GI50)” value [14]?
The value was -6.57.

And the “NCI-60 screening: Log(RedIndex)” value [14]?
The value was 0.89.

What about the GI50 (cell line KM12 (CO:KM12), TMI sheet, read-out: NCI-60 screening: Raw GI50) of the same molecule?
Its GI50 is 270 nM.

And the “NCI-60 screening: Log(GI50)” value [15]?
The value was -6.68.

And the “NCI-60 screening: Log(RedIndex)” value [15]?
The value was 0.72.

What about the GI50 (cell line LOX IMVI (ME:LOX IMVI), TMI sheet, read-out: NCI-60 screening: Raw GI50) of the same molecule?
Its GI50 is 210 nM.

And the “NCI-60 screening: Log(GI50)” value [16]?
The value was -6.72.

And the “NCI-60 screening: Log(RedIndex)” value [16]?
Its value is 0.9.

And the GI50 (cell line M14 (ME:M14), TMI sheet, read-out: NCI-60 screening: Raw GI50)?
Its GI50 is 190 nM.

And the “NCI-60 screening: Log(GI50)” value [17]?
The value was -6.55.

And the “NCI-60 screening: Log(RedIndex)” value [17]?
The value was 0.75.

And the “NCI-60 screening: Log(GI50)” value [18]?
The value was -7.45.

And the “NCI-60 screening: Log(RedIndex)” value [18]?
Its value is 0.95.

And the “NCI-60 screening: Log(GI50)” value [19]?
Its value is -6.67.

What about the “NCI-60 screening: Log(RedIndex)” value [19] of the same molecule?
The value was 0.92.

What about the GI50 (cell line MDA-MB-435 (ME:MDA-MB-435), TMI sheet, read-out: NCI-60 screening: Raw GI50) of the same molecule?
The GI50 was 210 nM.

What about the “NCI-60 screening: Log(GI50)” value [20] of the same molecule?
Its value is -7.05.

What about the “NCI-60 screening: Log(RedIndex)” value [20] of the same molecule?
Its value is 0.82.

What about the “NCI-60 screening: Log(GI50)” value [21] of the same molecule?
Its value is -7.26.

What about the “NCI-60 screening: Log(RedIndex)” value [21] of the same molecule?
Its value is 0.93.

And the “NCI-60 screening: Log(GI50)” value [22]?
Its value is -6.36.

What about the “NCI-60 screening: Log(RedIndex)” value [22] of the same molecule?
The value was 0.52.

And the “NCI-60 screening: Log(GI50)” value [23]?
The value was -6.65.

What about the “NCI-60 screening: Log(RedIndex)” value [23] of the same molecule?
The value was 0.82.

And the GI50 (cell line RPMI-8226 (LE:RPMI-8226), TMI sheet, read-out: NCI-60 screening: Raw GI50)?
Its GI50 is 220 nM.

And the “NCI-60 screening: Log(GI50)” value [24]?
The value was -6.73.

What about the “NCI-60 screening: Log(RedIndex)” value [24] of the same molecule?
The value was 0.92.

And the GI50 (cell line SF-268 (CNS:SF-268), TMI sheet, read-out: NCI-60 screening: Raw GI50)?
Its GI50 is 190 nM.

And the “NCI-60 screening: Log(GI50)” value [25]?
Its value is -6.84.

What about the “NCI-60 screening: Log(RedIndex)” value [25] of the same molecule?
The value was 1.03.

And the “NCI-60 screening: Log(GI50)” value [26]?
The value was -6.78.

And the “NCI-60 screening: Log(RedIndex)” value [26]?
Its value is 0.89.

And the GI50 (cell line SF-539 (CNS:SF-539), TMI sheet, read-out: NCI-60 screening: Raw GI50)?
Its GI50 is 170 nM.

And the “NCI-60 screening: Log(GI50)” value [27]?
The value was -6.78.

And the “NCI-60 screening: Log(RedIndex)” value [27]?
Its value is 0.99.

What about the GI50 (cell line SK-MEL-5 (ME:SK-MEL-5), TMI sheet, read-out: NCI-60 screening: Raw GI50) of the same molecule?
Its GI50 is 170 nM.

What about the “NCI-60 screening: Log(GI50)” value [28] of the same molecule?
Its value is -6.53.

And the “NCI-60 screening: Log(RedIndex)” value [28]?
Its value is 1.09.

And the GI50 (cell line SK-MEL-28 (ME:SK-MEL-28), TMI sheet, read-out: NCI-60 screening: Raw GI50)?
Its GI50 is 290 nM.

What about the “NCI-60 screening: Log(GI50)” value [29] of the same molecule?
Its value is -6.6.

And the “NCI-60 screening: Log(RedIndex)” value [29]?
Its value is 0.94.

And the GI50 (cell line SNB-19 (CNS:SNB-19), TMI sheet, read-out: NCI-60 screening: Raw GI50)?
Its GI50 is 250 nM.

What about the “NCI-60 screening: Log(GI50)” value [30] of the same molecule?
The value was -7.47.

And the “NCI-60 screening: Log(RedIndex)” value [30]?
Its value is 0.91.

And the “NCI-60 screening: Log(GI50)” value [31]?
The value was -6.66.

What about the “NCI-60 screening: Log(RedIndex)” value [31] of the same molecule?
Its value is 0.93.

What about the GI50 (cell line SW-620 (CO:SW-620), TMI sheet, read-out: NCI-60 screening: Raw GI50) of the same molecule?
Its GI50 is 220 nM.

What about the “NCI-60 screening: Log(GI50)” value [32] of the same molecule?
The value was -6.16.

And the “NCI-60 screening: Log(RedIndex)” value [32]?
Its value is 0.44.

What about the “NCI-60 screening: Log(GI50)” value [33] of the same molecule?
Its value is -6.79.

And the “NCI-60 screening: Log(RedIndex)” value [33]?
Its value is 0.96.

And the GI50 (cell line U251 (CNS:U251), TMI sheet, read-out: NCI-60 screening: Raw GI50)?
The GI50 was 160 nM.

And the “NCI-60 screening: Log(GI50)” value [34]?
The value was -6.57.

What about the “NCI-60 screening: Log(RedIndex)” value [34] of the same molecule?
Its value is 0.75.

What about the GI50 (cell line UACC-62 (ME:UACC-62), TMI sheet, read-out: NCI-60 screening: Raw GI50) of the same molecule?
The GI50 was 270 nM.

And the “NCI-60 screening: Log(GI50)” value [35]?
The value was -6.2.

And the “NCI-60 screening: Log(RedIndex)” value [35]?
The value was 0.5.

And the GI50 (read-out: NCI-60 screening: Raw GI50)?
The GI50 was 230 nM.
